Test results from patent US7388017B2, “Inhibitors of serine proteases, particularly hepatitis C virus NS3 protease” (Vertex Pharmaceuticals Incorporated, priority 1996, dated 2008).
pKi: −log10 of the molar value. Starred links: 1 amine or outer side, 2 acyl side, 3 side chain; linkers in the order of their positions; H or OH if unused. Non-standard residues stand in square brackets, D forms with d. Residues, ends and D or L forms follow the SMILES beside them. ξ: configuration not given here. *: point of attachment. ξ(3-Amino-2-oxopentanoyl) = CCC(N[*:1])C(=O)C(=O)[*:2]; X23 = CCC(N*)C(=O)c1ncc(-c2c(Cl)cccc2Cl)o1; Bip = N[CH](Cc1ccc(-c2ccccc2)cc1)C(=O)O; Acetyl(3-pyridyl) = O=C(Cc1cccnc1)*; Pyrazinecarbonyl = O=C(c1cnccn1)*; X41 = CCC(N*)C(=O)c1nc2ccccc2o1; 3Pal = N[CH](Cc1cccnc1)C(=O)O; NH(4-picolyl) = c1cc(CN*)ccn1; Hyp = O=C(O)[CH]1C[CH](O)CN1; NHPhenethyl = c1ccc(CCN*)cc1; Nicotinoyl = O=C(c1cccnc1)*; X44 = O=C(c1ccc2cnccc2n1)*; X12 = CCC(N*)C(=O)c1nccs1; Morpholide = C1CN(*)CCO1; Abu = CC[CH](N)C(=O)O; X8 = O=C(CCN1CCCCC1)*; NHBn = c1ccc(CN*)cc1; Glycolyl = O=C(CO)*; X13 = COc1ccccc1CN*; X16 = C1COC(CN*)C1; Bn = c1ccc(C*)cc1; X37 = COCC(C)N*; NHPr = CCCN*

These compounds were tested against T1, HCV NS3 protease (Hepatitis C virus genotype 1a, UniProt P27958) (assay: Enzyme inhibition of HCV NS3 serine protease (cleavage of peptide substrate / EDVV AbuC-p-nitroanilide, with or without NS4A)). Settings: not given.
T1 construct: more particularly HCV NS3 proteases
Assay type: biochemical
Experimental: Cleavage reactions were quenched by the addition of an equal volume of a mixture of 10% TFA:acetonitrile (1:1) and activity was assessed on a reversed phase HPLC column (Rainin C18 Microsorb-MV, […], 4.6×250 mm; 0-50% acetonitrile, 0.1% TFA@ 3.33% min) using a Hewlett Packard 1050 instrument with auto-injection and diode array detection at 210 nm and 280 nm (where appropriate). Peptide elution fragments were collected and identified by mass spectrometry and N-terminal sequence analysis. Fragment identity and concentration was further verified by authentic, synthesized products. Initial rates of cleavage were determined at <20% substrate conversion and catalytic parameters were determined assuming Michaelis-Menten kinetics using the MultiFit program (Day Computing, Cambridge, Mass.).
Spectrophotometric assays were run in a 96-well microtiter plate at 30 C, using a SpectraMax 250 reader (Molecular Devices, Sunnyvale, Calif.) with kinetic capability. Cleavage of EDVV AbuC-p-nitroanilide (5A-pNA) substrate was performed with or without […] in the same buffer used for HPLC assays at 30 C, and pNA release was monitored at 405 nm. The extinction-coefficient of p-nitroaniline is independent of pH at values of 5.5. and above [Tuppy, H., et al., Hoppe-Seyler's Z. Physiol. Chem., 329, pp. 278-288 (1962)]; Raybuck and Luong, unpublished observations).
Kinetic constants for the rapid equilibrium ordered bisubstrate reaction were determined from rate vs [4A], [EDVV AbuC-pNA] data by non-linear least squares fitting to equation 1 [Morrison, J. F. Biochim. Biophys. Acta, 185, pp. 269-286 (1969)] as described in the text. Kii and Kis values for peptidyl inhibitors were determined from rate vs [inhibitor], [substrate] data and fitting to the equation for mixed inhibition: rate=Vmax[S]/{Km(1+[I]/Kis)+[S](1+[I]/Kii)} The commercial program KinetAsyst (StateCollege, Pa.) was used for both procedures. Ki values were calculated from rate vs [inhibitor] plots by a nonlinear least squares fit of the data to the equation of Morrison for tight binding competitive inhibition [Morrison, J. F. Biochim. Biophys. Acta, 185, pp. 269-286 (1969)]. The KineTic program (BioKin Ltd) was used for this procedure.
Ki values are expressed in μM. Category “A” indicates <1 μM inhibition; category “B” indicates 1-100 μM inhibition; category “C” indicates >100 μM.

T1 sequence (P27958 1027-1208): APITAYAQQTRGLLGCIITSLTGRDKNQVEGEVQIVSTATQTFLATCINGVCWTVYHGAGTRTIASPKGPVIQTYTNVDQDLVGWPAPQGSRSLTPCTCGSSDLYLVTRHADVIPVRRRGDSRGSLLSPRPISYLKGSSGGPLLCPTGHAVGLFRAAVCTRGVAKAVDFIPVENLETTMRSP

| SMILES | pKi |
| --- | --- |
| CCC(NC(=O)C(CC(C)C)NC(=O)C(NC(=O)C(NC(=O)c1cnccn1)C(C)C)C(C)C)C(=O)C(=O)N[C@H](CC)c1ccccc1 (some centres unmarked) [Compound 120] | 4.00 to 6.00 |
| CCC(NC(=O)C(CC(C)C)NC(=O)C(NC(=O)C(NC(=O)c1cnccn1)C(C)C)C(C)C)C(=O)C(=O)N[C@@H](CC)c1ccccc1 (some centres unmarked) [Compound 121] | < 4.00 |

Same assay, conditions: Enzyme inhibition data; Ki from rate vs [inhibitor] plots, Morrison tight binding competitive inhibition fit; 30 C, pH 7.8; read-out: Ki

| SMILES | pKi |
| --- | --- |
| CCOC(=O)C(F)(F)C(=O)C(CC)NC(=O)C1CC(OCc2ccccc2)CN1C(=O)C(NC(=O)C(NC(=O)c1cnccn1)C(C)C)C(C)C (centres unmarked) [Compound 76] | < 4.00 |
| CCOP(=O)(OCC)C(CC)NC(=O)C1CC(OCc2ccccc2)CN1C(=O)C(NC(=O)C(NC(=O)c1cnccn1)C(C)C)C(C)C (centres unmarked) [Compound 77] | < 4.00 |
| CCC(NC(=O)C1CC(OCc2ccccc2)CN1C(=O)C(NC(=O)C(NC(=O)c1cnccn1)C(C)C)C(C)C)C(=O)C(=O)CCc1ccccc1 (centres unmarked) [Compound 78] | 4.00 to 6.00 |
| CCC(NC(=O)C1CC(OCc2ccccc2)CN1C(=O)C(NC(=O)C(NC(=O)c1cnccn1)C(C)C)C(C)C)C(=O)C(=O)NCCc1ccccc1 (centres unmarked) [Compound 79] | 4.00 to 6.00 |
| CCC(C=O)NC(=O)C1CC(OCc2ccccc2)CN1C(=O)C(NC(=O)C(NC(C)=O)C(C)C)C(C)C (centres unmarked) [Compound 81] (Ac-VV[Hyp](Bn)[Abu]-aldehyde; configuration not given here) | 4.00 to 6.00 |
| CCC(C=O)NC(=O)C1CC(OCc2ccccc2)CN1C(=O)C(NC(=O)C(NC(=O)CO)C(C)C)C(C)C (centres unmarked) [Compound 82] (Glycolyl-VV[Hyp](Bn)[Abu]-aldehyde; configuration not given here) | 4.00 to 6.00 |
| CCC(C=O)NC(=O)C(CC(C)C)NC(=O)C(NC(=O)C(NC(=O)c1ccc2cnccc2n1)C(C)C)C(C)C (centres unmarked) [Compound 89] (X44-VVL[Abu]-aldehyde; configuration not given here) | 4.00 to 6.00 |
| CCC(C=O)NC(=O)C(CC(C)C)NC(=O)C(NC(=O)C(NC(=O)c1cccnc1)C(C)C)C(C)C (centres unmarked) [Compound 94] (Nicotinoyl-VVL[Abu]-aldehyde; configuration not given here) | 4.00 to 6.00 |
| CCC(C=O)NC(=O)C(CC(C)C)NC(=O)C(NC(=O)C(NC(=O)Cc1cccnc1)C(C)C)C(C)C (centres unmarked) [Compound 95] ({Acetyl(3-pyridyl)}-VVL[Abu]-aldehyde; configuration not given here) | 4.00 to 6.00 |
| CCC(C=O)NC(=O)C(CC(C)C)NC(=O)C(NC(=O)C(NC(=O)CCN1CCCCC1)C(C)C)C(C)C (centres unmarked) [Compound 97] (X8-VVL[Abu]-aldehyde; configuration not given here) | 4.00 to 6.00 |
| CCC(NC(=O)C(CC(C)C)NC(=O)C(NC(=O)C(NC(=O)C(CC(=O)O)NC(=O)C(CCC(=O)O)NC(C)=O)C(C)C)C(C)C)C(=O)C(=O)O (centres unmarked) [Compound 101] (Ac-EDVVL-{ξ(3-Amino-2-oxopentanoyl)}; configuration not given here) | > 6.00 |
| CCC(NC(=O)C(CC(C)C)NC(=O)C(NC(=O)C(NC(=O)C(CC(=O)O)NC(=O)C(CCC(=O)O)NC(C)=O)C(C)C)C(C)C)C(=O)C(=O)NCc1ccccc1 (centres unmarked) [Compound 102] (Ac-EDVVL[ξ(3-Amino-2-oxopentanoyl)]-NHBn; configuration not given here) | > 6.00 |
| CCC(NC(=O)C(CC(C)C)NC(=O)C(NC(=O)C(NC(=O)C(CC(=O)O)NC(=O)C(CCC(=O)O)NC(C)=O)C(C)C)C(C)C)C(=O)C(=O)NCc1ccccc1OC (centres unmarked) [Compound 103] (Ac-EDVVL[ξ(3-Amino-2-oxopentanoyl)]-X13; configuration not given here) | > 6.00 |
| CCC(NC(=O)C(CC(C)C)NC(=O)C(NC(=O)C(NC(=O)C(CC(=O)O)NC(=O)C(CCC(=O)O)NC(C)=O)C(C)C)C(C)C)C(=O)C(=O)NCCc1ccccc1 (centres unmarked) [Compound 104] (Ac-EDVVL[ξ(3-Amino-2-oxopentanoyl)]-NHPhenethyl; configuration not given here) | > 6.00 |
| CCCNC(=O)C(=O)C(CC)NC(=O)C(CC(C)C)NC(=O)C(NC(=O)C(NC(=O)C(CC(=O)O)NC(=O)C(CCC(=O)O)NC(C)=O)C(C)C)C(C)C (centres unmarked) [Compound 105] (Ac-EDVVL[ξ(3-Amino-2-oxopentanoyl)]-NHPr; configuration not given here) | > 6.00 |
| CCC(NC(=O)C(CC(C)C)NC(=O)C(NC(=O)C(NC(=O)C(CC(=O)O)NC(=O)C(CCC(=O)O)NC(C)=O)C(C)C)C(C)C)C(=O)C(=O)NC(C)COC (centres unmarked) [Compound 106] (Ac-EDVVL[ξ(3-Amino-2-oxopentanoyl)]-X37; configuration not given here) | > 6.00 |
| CCC(NC(=O)C(CC(C)C)NC(=O)C(NC(=O)C(NC(=O)C(CC(=O)O)NC(=O)C(CCC(=O)O)NC(C)=O)C(C)C)C(C)C)C(=O)C(=O)NCc1ccncc1 (centres unmarked) [Compound 107] (Ac-EDVVL[ξ(3-Amino-2-oxopentanoyl)]-{NH(4-picolyl)}; configuration not given here) | > 6.00 |

| SMILES | pKi |
| --- | --- |
| CCC(NC(=O)C(CC(C)C)NC(=O)C(NC(=O)C(NC(=O)C(CC(=O)O)NC(=O)C(CCC(=O)O)NC(C)=O)C(C)C)C(C)C)C(=O)C(=O)NCC1CCCO1 (centres unmarked) [Compound 108] (Ac-EDVVL[ξ(3-Amino-2-oxopentanoyl)]-X16; configuration not given here) | > 6.00 |
| CCC(NC(=O)C(CC(C)C)NC(=O)C(NC(=O)C(NC(=O)C(CC(=O)O)NC(=O)C(CCC(=O)O)NC(C)=O)C(C)C)C(C)C)C(=O)C(=O)N1CCOCC1 (centres unmarked) [Compound 109] (Ac-EDVVL[ξ(3-Amino-2-oxopentanoyl)]-Morpholide; configuration not given here) | 4.00 to 6.00 |
| CCC(NC(=O)C(CC(C)C)NC(=O)C(NC(=O)C(NC(=O)c1cnccn1)C(C)C)C(C)C)C(=O)C(=O)NCc1ccccc1 (centres unmarked) [Compound 112] | 4.00 to 6.00 |
| CCC(NC(=O)C(CC(C)C)NC(=O)C(NC(=O)C(NC(=O)c1cnccn1)C(C)C)C(C)C)C(=O)C(=O)NCCc1ccc(OCc2ccccc2)c(OCc2ccccc2)c1 (centres unmarked) [Compound 113] | 4.00 to 6.00 |
| CCC(NC(=O)C(CC(C)C)NC(=O)C(NC(=O)C(NC(=O)c1cnccn1)C(C)C)C(C)C)C(=O)C(=O)NCc1ccccc1OC (centres unmarked) [Compound 114] | < 4.00 |
| CCC(NC(=O)C(CC(C)C)NC(=O)C(NC(=O)C(NC(=O)c1cnccn1)C(C)C)C(C)C)C(=O)C(=O)NCCc1ccccc1 (centres unmarked) [Compound 115] | 4.00 to 6.00 |
| CCC(NC(=O)C(CC(C)C)NC(=O)C(NC(=O)C(NC(=O)c1cnccn1)C(C)C)C(C)C)C(=O)C(=O)N[C@H](C)c1ccccc1 (some centres unmarked) [Compound 116] | 4.00 to 6.00 |
| CCC(NC(=O)C(CC(C)C)NC(=O)C(NC(=O)C(NC(=O)c1cnccn1)C(C)C)C(C)C)C(=O)C(=O)N[C@@H](C)c1ccccc1 (some centres unmarked) [Compound 117] | 4.00 to 6.00 |
| CCC(NC(=O)C(CC(C)C)NC(=O)C(NC(=O)C(NC(=O)c1cnccn1)C(C)C)C(C)C)C(=O)C(=O)Nc1ccccc1 (centres unmarked) [Compound 119] | < 4.00 |
| CCC(NC(=O)C(CC(C)C)NC(=O)C(NC(=O)C(NC(=O)c1cnccn1)C(C)C)C(C)C)C(=O)C(=O)N(CC)CC (centres unmarked) [Compound 122] | < 4.00 |
| CCC(NC(=O)C(CC(C)C)NC(=O)C(NC(=O)C(NC(=O)c1cnccn1)C(C)C)C(C)C)C(=O)C(=O)NCC(C)OC (centres unmarked) [Compound 123] | 4.00 to 6.00 |
| CCC(NC(=O)C(CC(C)C)NC(=O)C(NC(=O)C(NC(=O)C(CC(=O)O)NC(=O)C(N)CCC(=O)O)C(C)C)C(C)C)C(=O)c1nc2ccccc2o1 (centres unmarked) [Compound 124] (H-EDVVL-X41; configuration not given here) | 4.00 to 6.00 |
| CCC(NC(=O)C(CC(C)C)NC(=O)C(NC(=O)C(NC(=O)C(CC(=O)O)NC(=O)C(N)CCC(=O)O)C(C)C)C(C)C)C(=O)c1nccs1 (centres unmarked) [Compound 125] (H-EDVVL-X12; configuration not given here) | 4.00 to 6.00 |
| CCC(NC(=O)C(CC(C)C)NC(=O)C(NC(=O)C(NC(=O)C(CC(=O)O)NC(=O)C(N)CCC(=O)O)C(C)C)C(C)C)C(=O)c1ncc(-c2c(Cl)cccc2Cl)o1 (centres unmarked) [Compound 126] (H-EDVVL-X23; configuration not given here) | < 4.00 |
| CCC(C=O)NC(=O)C1CC(OCc2ccccc2)CN1C(=O)C(NC(=O)C(Cc1cccnc1)NC(=O)c1cnccn1)C(C)C (centres unmarked) [Compound 127] (Pyrazinecarbonyl-[3Pal]V[Hyp](Bn)[Abu]-aldehyde; configuration not given here) | < 4.00 |
| CCC(C=O)NC(=O)C1CC(OCc2ccccc2)CN1C(=O)C(NC(=O)C(Cc1ccc(-c2ccccc2)cc1)NC(=O)c1cnccn1)C(C)C (centres unmarked) [Compound 130] (Pyrazinecarbonyl-[Bip]V[Hyp](Bn)[Abu]-aldehyde; configuration not given here) | < 4.00 |
